We go through 1 substance from PMC5479826, “Determination of Crucial Immunogenic Epitopes in Major Peanut Allergy Protein, Ara h2, via Novel Nanoallergen Platform” (Scientific Reports, 2017).

This assay deals with patient sera IgEs. Nature of the assay: ELISA binding assay with patient sera. Also noted: species or system human. Here is the method:
A high binding 96 well plate was incubated with anti-Human IgE in Carbonate-Bicarbonate buffer (Sigma) at a concentration of 3 nM for 16 hours at 4 °C. Plate was washed with washing buffer (PBS with 0.5% tween 20) and then blocked with blocking buffer (5% BSA in PBS with 0.1% tween 20) for 1 hr at room temperature. Plate was washed with automatic plate washer (AquaMax 2000), then varying concentrations of either Ara h2-Biotin (Indoors Biotechnologies) or FITC-peptide 2 conjugate in blocking buffer for 1 hour. Plate was washed again and then either streptavidin-HRP (1:5 000 dilution) or anti-FITC HRP IgG (1:5000 dilution) was added in blocking buffer. After another washing step, Amplex Red substrate was added (Invitrogen) and plate fluorescence was read at 5 minute intervals according to manufacturer’s instructions.

In general, EC50 refers to the concentration that produces a half-maximal response. ERDPYSP^OHSQDPYSP^OHS [Epitope 2] returned an EC50 (Fig. S-2, patient serum 1 on anti-IgE coated plate, Ara h 2-Biotin or FITC-tagged epitope 2 peptide) of 465 ± 200 nM. In addition, the “Binding to patient sera IgEs in ELISA (detectability)” value (serum 1, result in words) is reported as “detectable binding”.
